Reference: patent US7820669B2 (NYCOMED GmbH, priority 2004, dated 2010)

Legend:
[1] = molecular target: T1, PDE4B2 (Homo sapiens, UniProt Q07343); test: Inhibition of PDE4B2 activity, modified [3H]cAMP SPA (scintillation proximity assay) test; type: biochemical; settings: recombinant PDE4B2 expressed in SF21 insect cells; 0.5 μM cAMP; 15 min at 37° C.; read-out: PDE4 Inhibition [measured as -logIC50 (mol/l)] (converted)
T1 construct: made in house; host or cells: SF21 insect cells (baculovirus generated in SF9 cells, pCR-Bac vector)
Description: PDE4B2 (GB no. M97515) was a gift of Prof. M. Conti (Stanford University, USA). It was amplified from the original plasmid (pCMV5) via PCR with primers Rb9 (5′-[…]-3′) and Rb10 (5′-[…]-3′) and cloned into the pCR-Bac vector (Invitrogen, Groningen, NL).
The recombinant baculovirus was prepared by means of homologous recombination in SF9 insect cells. The expression plasmids were cotransfected with Bac-N-Blue (Invitrogen, Groningen, NL) or Baculo-Gold DNA (Pharmingen, Hamburg) using a standard protocol (Pharmingen, Hamburg). Wt vrus-free recombinant virus supernatants were selected using plaque assay methods. After that, high-titre virus supernatants were, prepared by amplifying 3 times. PDE4B2 was expressed in SF21 cells by infecting 2×10^6 cells/ml with an MOI (multiplicity of infection) between 1 and 10 in serum-free SF900 medium (Life Technologies, Paisley, UK). The cells were cultured at 28° C. for 48-72 hours, after which they were pelleted for 5-10 min at 1000 g and 4° C.
The SF21 insect cells were resuspended, at a concentration of approx. 10^7 cells/ml, in ice-cold (4° C.) homogenization buffer (20 mM Tris, pH 8.2, containing the following additions: 140 mM NaCl, 3.8 mM KCl, 1 mM EGTA, 1 mM MgCl2, 10 mM β-mercaptoethanol, 2 mM benzamidine, 0.4 mM Pefablock, 10 μM leupeptin, 10 μM pepstatin A, 5 μM trypsin inhibitor) and disrupted by ultrasonication. The homogenate was then centrifuged for 10 min at 1000×g and the supernatant was stored at −80° C. until sub-sequent use (see below). The protein content was determined by the Bradford method (BioRad, Munich) using BSA as the standard.
PDE4B2 activity was inhibited by the compounds according to the invention in a modified SPA (scintillation proximity assay) test, supplied by Amersham Biosciences (see procedural instructions “phosphodiesterase [3H]cAMP SPA enzyme assay, code TRKQ 7090”), carried out in 96-well microtitre plates (MTP's). The test volume is 100 μl and contains 20 mM Tris buffer (pH 7.4), 0.1 mg of BSA (bovine serum albumin)/ml, 5 mM Mg^2+, 0.5 μM cAMP (including about 50,000 cpm of [3H]cAMP), 1 μl of the respective substance dilution in DMSO and sufficient recombinant PDE (1000×g supernatant, see above) to ensure that 10-20% of the cAMP is converted under the said experimental conditions. […] After a preincubation of 5 min at 37° C., the reaction is started by adding the substrate (cAMP) and the assays are incubated for a further 15 min; after that, they are stopped by adding SPA beads (50 μl). In accordance with the manufacturer's instructions, the SPA beads had previously been resuspended in water, but were then diluted 1:3 (v/v) in water; the diluted solution also contains 3 mM IBMX to ensure a complete PDE activity stop. After the beads have been sedimented (>30 min), the MTP's are analyzed in commercially available luminescence detection devices. The corresponding IC50 values of the compounds for the inhibition of PDE4B2 activity are determined from the concentration-effect curves by means of non-linear regression.

T1 sequence (Q07343 1-564 isoform Q07343-2): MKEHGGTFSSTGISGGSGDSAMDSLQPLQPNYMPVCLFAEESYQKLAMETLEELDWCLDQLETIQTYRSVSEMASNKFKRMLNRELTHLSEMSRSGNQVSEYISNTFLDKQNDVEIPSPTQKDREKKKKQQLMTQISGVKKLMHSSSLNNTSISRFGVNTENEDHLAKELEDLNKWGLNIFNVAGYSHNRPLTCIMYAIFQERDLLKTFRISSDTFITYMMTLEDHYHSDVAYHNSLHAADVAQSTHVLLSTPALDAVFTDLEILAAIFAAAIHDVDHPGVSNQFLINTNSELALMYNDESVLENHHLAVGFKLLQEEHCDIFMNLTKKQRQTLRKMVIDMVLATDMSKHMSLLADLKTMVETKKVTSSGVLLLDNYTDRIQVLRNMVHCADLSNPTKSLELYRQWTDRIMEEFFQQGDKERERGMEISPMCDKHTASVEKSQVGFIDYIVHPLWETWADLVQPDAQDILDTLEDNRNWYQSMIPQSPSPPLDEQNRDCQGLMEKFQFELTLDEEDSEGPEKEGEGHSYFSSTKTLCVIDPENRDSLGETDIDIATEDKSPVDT

| IC50 [1] [nM] | melting point [°C] | Structure (SMILES) |
| --- | --- | --- |
| 0.295 | 190 to 192 | COc1ccc(C2=NN(C3CCN(S(=O)(=O)c4ccccc4C#N)CC3)C(=O)C(C)(C)C2)cc1OC [Compound 1] |
| 25.1 | 211 to 213 | COc1ccc(C2=NN(C3CCN(CCC(=O)N4CCOCC4)CC3)C(=O)C(C)(C)C2)cc1OC.Cl [Compound 2, 6-(3,4-Dimethoxy-phenyl)-4,4-dimethyl-2-[1-(3-morpholin-4-yl-3-oxo-propyl)piperidin-4-yl]-4,5-dihydro-2H-pyridazin-3-one Hydrochloride] |
| 1.29 | 177 to 179 | COc1ccc(C2=NN(C3CCN(C(=O)CN4C(=O)CCC4=O)CC3)C(=O)C(C)(C)C2)cc1OC [Compound 4, 1-(2-{4-[3-(3,4-Dimethoxy-phenyl)-5,5-dimethyl-6-oxo-5,6-dihydro-4H-pyridazin-1-yl]-piperidin-1-yl}-2-oxo-ethyl)-pyrrolidine-2,5-dione] |
| 0.741 | 132 to 133 | COc1ccc(C2=NN(C3CCN(S(=O)(=O)c4ccccc4C)CC3)C(=O)C(C)(C)C2)cc1OC [Compound 5, 6-(3,4-Dimethoxy-phenyl)-4,4-dimethyl-2-[1-(toluene-2-sulfonyl)-piperidin-4-yl]-4,5-dihydro-2H-pyridazin-3-one] |
| – | 161 to 163 | COc1ccc(C2=NN(C3CCN(S(=O)(=O)c4ccc(C#N)cc4)CC3)C(=O)C(C)(C)C2)cc1OC [Compound 6, 4-{4-[3-(3,4-Dimethoxy-phenyl)-5,5-dimethyl-6-oxo-5,6-dihydro-4H-pyridazin-1-yl]-piperidine-1-sulfonyl}-benzonitrile] |
| 2.29 | 143 to 144 | COc1ccc(C2=NN(C3CCN(S(=O)(=O)c4ccccc4OC(F)(F)F)CC3)C(=O)C(C)(C)C2)cc1OC [Compound 7, 6-(3,4-Dimethoxy-phenyl)-4,4-dimethyl-2-[1-(2-trifluoromethoxy-benzenesulfonyl)-piperidin-4-yl]-4,5-dihydro-2H-pyridazin-3-one] |
| 0.209 | 157 to 159 | COc1ccc(C2=NN(C3CCN(C(=O)c4ccccc4OC)CC3)C(=O)C(C)(C)C2)cc1OC [Compound 8, 6-(3,4-Dimethoxy-phenyl)-2-{1-[1-(2-methoxy-phenyl)-methanoyl]-piperidin-4-yl}-4,4-dimethyl-4,5-dihydro-2H-pyridazin-3-one] |
| – | 158 to 160 | COc1ccc(C2=NN(C3CCN(S(=O)(=O)c4cccc(C#N)c4)CC3)C(=O)C(C)(C)C2)cc1OC [Compound 9, 3-{4-[3-(3,4-Dimethoxy-phenyl)-5,5-dimethyl-6-oxo-5,6-dihydro-4H-pyridazin-1-yl]-piperidine-1-sulfonyl}-benzonitrile] |
| – | 161 to 164 | COc1ccc(C2=NN(C3CCN(S(=O)(=O)c4ccc(C)cc4)CC3)C(=O)C(C)(C)C2)cc1OC [Compound 10, 6-(3,4-Dimethoxy-phenyl)-4,4-dimethyl-2-[1-(toluene-4-sulfonyl)-piperidin-4-yl]-4,5-dihydro-2H-pyridazin-3-one] |
| – | 150 to 152 | COc1ccc(C2=NN(C3CCN(S(=O)(=O)c4cccc(C)c4)CC3)C(=O)C(C)(C)C2)cc1OC [Compound 11, 6-(3,4-Dimethoxy-phenyl)-4,4-dimethyl-2-[1-(toluene-3-sulfonyl)-piperidin-4-yl]-4,5-dihydro-2H-pyridazin-3-one] |
| – | 172 to 174 | COc1ccc(C2=NN(C3CCN(S(=O)(=O)N(C)C)CC3)C(=O)C(C)(C)C2)cc1OC [Compound 12, 4-[3-(3,4-Dimethoxy-phenyl)-5,5-dimethyl-6-oxo-5,6-dihydro-4H-pyridazin-1-yl]-piperidine-1-sulfonic Acid Dimethylamide] |
| 0.417 | 215 to 216 | COc1ccc(C2=NN(C3CCN(CC(N)=O)CC3)C(=O)C(C)(C)C2)c2c1OC(C)(C)C2 [Compound 13, 2-{4-[3-(7-Methoxy-2,2-dimethyl-2,3-dihydro-benzofuran-4-yl)-5,5-dimethyl-6-oxo-5,6-dihydro-4H-pyridazin-1-yl]-piperidin-1-yl}-acetamide] |
| – | 160 to 161 | CCC1(CC)CC(c2ccc(OC)c(OC)c2)=NN(C2CCN(C(=O)c3ccccc3)CC2)C1=O [Compound 14, 6-(3,4-Dimethoxy-phenyl)-4,4-diethyl-2-[1-(1-phenyl-methanoyl)-piperidin-4-yl]-4,5-dihydro-2H-pyridazin-3-one] |
| 6.17 | 69 to 74 | CCC1(CC)CC(c2ccc(OC)c(OC)c2)=NN(C2CCN(CC(N)=O)CC2)C1=O.Cl [Compound 15, 2-{4-[3-(3,4-Dimethoxy-phenyl)-5,5-diethyl-6-oxo-5,6-dihydro-4H-pyridazin-1-yl]-piperidin-1-yl}-acetamide Hydrochloride] |
| 0.355 | 156 to 157 | CCC1(CC)CC(c2ccc(OC)c(OC)c2)=NN(C2CCN(S(=O)(=O)c3ccccc3C#N)CC2)C1=O [Compound 16, 2-{4-[3-(3,4-Dimethoxy-phenyl)-5,5-diethyl-6-oxo-5,6-dihydro-4-pyridazin-1-yl]-piperidin-1-sulfonyl}-benzonitrile] |
| 0.646 | 210 to 211 | COc1ccc(C2=NN(C3CCN(C(=O)CN4C(=O)COCC4=O)CC3)C(=O)C(C)(C)C2)cc1OC [Compound 17, 4-(2-{4-[3-(3,4-Dimethoxy-phenyl)-5,5-dimethyl-6-oxo-5,6-dihydro-4H-pyridazin-1-yl]-piperidin-1-yl}-2-oxo-ethyl)-morpholine-3,5-dione] |
| – | 160 to 162 | CCC1(CC)CC(c2ccc(OC)c(OC)c2)=NN(C2CCN(C(=O)c3ccccc3OC)CC2)C1=O [Compound 18, 6-(3,4-Dimethoxy-phenyl)-4,4-diethyl-2-{1-[1-(2-methoxy-phenyl)-methanoyl]-piperidin-4-yl}-4,5-dihydro-2H-pyridazin-3-one] |
| – | 121 to 123 | COc1ccc(C2=NN(C3CCN(C(=O)CN4CCN(C)CC4)CC3)C(=O)C(C)(C)C2)c2c1OC(C)(C)C2 [Compound 19, 6-(7-Methoxy-2,2-dimethyl-2,3-dihydro-benzofuran-4-yl)-4,4-dimethyl-2-{1-[2-(4-methyl-piperazin-1-yl)-ethanoyl]-piperidin-4-yl}-4,5-dihydro-2H-pyridazin-3-one] |
| – | 240 to 241 | COc1ccc(C2=NN(C3CCN(C(=O)CN4C(=O)CCC4=O)CC3)C(=O)C(C)(C)C2)c2c1OC(C)(C)C2 [Compound 20, 1-(2-{4-[3-(7-Methoxy-2,2-dimethyl-2,3-dihydro-benzofuran-4-yl)-5,5-dimethyl-6-oxo-5,6-dihydro-4H-pyridazin-1-yl]-piperidin-1-yl}-2-oxo-ethyl)-pyrrolidine-2,5-dione] |
| – | 193 to 194 | COc1ccc(C2=NN(C3CCN(C(=O)CN4C(=O)c5ccccc5C4=O)CC3)C(=O)C(C)(C)C2)cc1OC [Compound 21, 2-(2-{4-[3-(3,4-Dimethoxy-phenyl)-5,5-dimethyl-6-oxo-5,6-dihydro-4H-pyridazin-1-yl]-piperidin-1-yl}-2-oxo-ethyl)-isoindole-1,3-dione] |

| Structure (SMILES) | IC50 [1] [nM] | melting point [°C] |
| --- | --- | --- |
| COc1ccc(C2=NN(C3CCN(CC(N)=O)CC3)C(=O)C(C)(C)C2)cc1OC [Compound 3] | 1.86 | – |
